From PMC7288171, “Synergistic Effects of Thiosemicarbazides with Clinical Drugs against S. aureus” (Molecules, 2020)
≈ marks a conversion by molar mass, not a printed value. Where two headings read alike, the source gives them in different places.

Experiments:
B. cereus ATCC 10876 = experiment: MIC, broth microdilution; format: cell-based; conditions: Bacillus cereus, ATCC10876
Protocol: (§1) The antibacterial activity of the thiosemicarbazides 1–9 and antibiotics (amoxicillin, gentamicin, levofloxacin, linezolid, and vancomycin) was tested on the Gram-positive strains (Microbiologics, St. Cloud, MN, USA) (S. aureus ATCC 25923, S. aureus ATCC 6538, S. epidermidis ATCC 12228, B. subtilis ATCC 6633, B. cereus ATCC 10876, M. luteus ATCC 10240), the Gram-negative strains (Microbiologics, St. Cloud, MN, USA) (E. coli ATCC 25922, K. pneumoniae ATCC 13883, P. mirabilis ATCC 12453, P. aeruginosa ATCC 9027), and clinical isolates of S. aureus (Medical University of Lublin, Lublin, Poland) (MSSA-1, MSSA-2, MSSA-3, MSSA-4, MRSA-1).

B. subtilis ATCC 6633 = experiment: MIC, broth microdilution; format: cell-based; conditions: Bacillus subtilis, ATCC6633
Protocol: as §1

M. luteus ATCC 10240 = experiment: MIC, broth microdilution; format: cell-based; conditions: Micrococcus luteus, ATCC10240
Protocol: as §1

S. aureus ATCC 25923 [1] = experiment: MIC, broth microdilution; format: cell-based; conditions: Staphylococcus aureus, ATCC25923
Protocol: as §1

S. aureus ATCC 6538 = experiment: MIC, broth microdilution; format: cell-based; conditions: Staphylococcus aureus, ATCC6538
Protocol: as §1

[2] = system: S. epidermidis ATCC 12228; experiment: MIC, broth microdilution; format: cell-based; conditions: Staphylococcus epidermidis, ATCC12228
Protocol: as §1

MRSA-1 = experiment: MIC, clinical isolate of S. aureus; format: cell-based; conditions: Staphylococcus aureus
Protocol: as §1

MSSA-1 = experiment: MIC, clinical isolate of S. aureus; format: cell-based; conditions: Staphylococcus aureus
Protocol: as §1

MSSA-2 = experiment: MIC, clinical isolate of S. aureus; format: cell-based; conditions: Staphylococcus aureus
Protocol: as §1

MSSA-3 = experiment: MIC, clinical isolate of S. aureus; format: cell-based; conditions: Staphylococcus aureus
Protocol: as §1

MSSA-4 = experiment: MIC, clinical isolate of S. aureus; format: cell-based; conditions: Staphylococcus aureus
Protocol: as §1

MTT cytotoxicity assay = format: cell-based, human; conditions: human, Hs27 foreskin fibroblast cells (ATCC CRL-1634), 25 µg/mL, 24 h, vehicle control = 100%
Protocol: (§2) A critical factor in research and development of new antibacterial agents is their abilities to selectively target bacterial cells without toxicity to mammalian cells. Thus, in order to test if antibacterial activity of title thiosemicarbazides is not due to their general toxicity, their effect on mammalian cell viability was assessed using human foreskin fibroblast Hs27 cells (CRL-1634) via MTT assay.
(§3) Cytotoxic properties of the compounds were evaluated using human foreskin fibroblast cells Hs27 (ATCC CRL-1634) (ATCC, Manassas, VA, USA) that were cultured in DMEM-high glucose (Sigma Aldrich, St. Louis, MO, USA). Medium was supplemented with 10% fetal bovine serum (FBS, Sigma Aldrich), 100 U/mL of penicillin, and […] of streptomycin (PenStrep, Sigma Aldrich, St. Louis, MO, USA). Cells were incubated at 37 °C in a humidified atmosphere of 5% CO2. Stock solutions of the tested compounds were prepared dissolving in a sterile dimethyl sulfoxide (DMSO) to the concentration of 50 mg/mL. The cells were seeded into 96-well sterile plates (Nunc) at a cell density of 1 × 10^5 cells/mL. After 24 h of incubation, the medium was removed from each well, and then cells were incubated for the next 24 h with tested compounds (in a fixed dose of 25 µg/mL) in DMEM-high glucose containing 2% FBS. Control cells were cultured only with medium containing 2% addition of FBS. Cytotoxicity of the compounds was evaluated using MTT assay, which is based on the conversion of 3-(4,5-dimethylthiazol-2-yl)-2,5- diphenyltetrazolium bromide (MTT) into dark-blue formazan crystals. Briefly, after 24-h incubation of cells with varying concentrations of the tested compounds, culture medium was removed from the plates. Cells were washed with PBS, and then 100 µL of medium containing 10% MTT solution (5 mg/mL) was added to each well. Cells were incubated for the next 3 h at 37 °C in an atmosphere of 5% CO2. Next, 100 µL (per well) of 10% sodium dodecyl sulfate (SDS) buffer solution was added to dissolve formazan crystals and after an overnight incubation the absorbance was measured at 570 nm using a microplate reader (Epoch, BioTek Instruments, Inc., Winooski, VT, USA).

[3] = system: human foreskin fibroblast Hs27 cells (CRL-1634); experiment: MTT cytotoxicity assay; format: cell-based; conditions: Homo sapiens, 24 h of treatment
Protocol: as §2, §3

S. aureus DNA gyrase = molecular target: T1, S. aureus DNA gyrase (Staphylococcus aureus, UniProt P0A0K8+P20831); experiment: Gyrase supercoiling assay; format: biochemical
T1 construct: purchased Inspiralis, Norwich, UK
Protocol: Supercoiling assay: The assays were performed using S. aureus Gyrase Supercoiling Assay Kits (Inspiralis, Norwich, UK). Briefly, […] pBR322 plasmid DNA (0.5 µg) was incubated with 1 unit of gyrase, in the dedicated supercoiling assay buffer supplied by the manufacturer, in the presence of varying concentrations of the test compounds. Reactions were carried out at 37 °C for 1 h and then terminated by the addition of equal volume of 2 × STOP Buffer (40% sucrose, 100 mM Tris-Cl pH 7.5, 1 mM EDTA, and 0.5 mg/mL bromophenol blue) and chloroform/iso-amyl alcohol. Samples were vortexed, centrifuged, and run through a 15 cm 1% agarose gel in TAE buffer (40 mM Tris-acetate, 2 mM EDTA) for 3 h at 50 V. Gels were stained with ethidium bromide and visualized under UV light.

S. aureus ATCC 25923 [4] = experiment: Checkerboard broth dilution synergy assay; format: cell-based
Protocol: The microdilution checkerboard method was used to evaluate the synergistic effects between the thiosemicarbazides 1–9 and antibiotics, which were determined as the fractional inhibitory concentration indices (FICIs). For these experiments, amoxicillin, gentamicin, levofloxacin, linezolid, and vancomycin were selected to represent the five antimicrobial classes most commonly used in clinical practice. In this way, a total of 45 combinations of thiosemicarbazide-amoxicillin, thiosemicarbazide-gentamicin, thiosemicarbazide-levofloxacin, thiosemicarbazide-linezolid, and thiosemicarbazide-vancomycin against S. aureus ATCC 25923 were tested to identify in vitro synergy effects.
Interaction of the thiosemicarbazides 1–9 in combination with amoxicillin, gentamicin, levofloxacin, linezolid or vancomycin against S. aureus ATCC 25923 were analyzed using the checkerboard broth dilution method to determine the fractional inhibitory concentration indices (FICIs), calculated as: FIC = MIC of drug A in combination/MIC of drug A alone + MIC of drug B in combination/MIC of drug B alone. The calculated FICIs were interpreted as synergistic (FIC ≤ 0.5), additive (0.5 < FIC < 1), indifferent (1 ≤ FIC < 4.0), or antagonistic (FIC ≥ 4.0). The checkerboard assay included ciprofloxacin-carvedilol combination as positive control, whereas cefuroxime in combination with 4-(4-bromophenyl)-1-(3-fluorobezoyl)thiosemicarbazide served as negative control. The Z-factor value for the bioassay was 0.683.

[5] = B. c. ATCC 10876, compounds 6–9 and antibiotics, read-out: MIC
[6] = B. s. ATCC 6633, compounds 6–9 and antibiotics, read-out: MIC
[7] = M. l. ATCC 10240, compounds 6–9 and antibiotics, read-out: MIC
[8] = S. a. ATCC 25923, compounds 6–9 and antibiotics, read-out: MIC
[9] = S. a. ATCC 6538, compounds 6–9 and antibiotics, read-out: MIC
[10] = S. e. ATCC 12228, compounds 6–9 and antibiotics, read-out: MIC
[11] = clinical isolate MRSA-1, read-out: MIC
[12] = clinical isolate MSSA-1, read-out: MIC
[13] = clinical isolate MSSA-2, read-out: MIC
[14] = clinical isolate MSSA-3, read-out: MIC
[15] = clinical isolate MSSA-4, read-out: MIC

T1 sequence (P20831 whole entry): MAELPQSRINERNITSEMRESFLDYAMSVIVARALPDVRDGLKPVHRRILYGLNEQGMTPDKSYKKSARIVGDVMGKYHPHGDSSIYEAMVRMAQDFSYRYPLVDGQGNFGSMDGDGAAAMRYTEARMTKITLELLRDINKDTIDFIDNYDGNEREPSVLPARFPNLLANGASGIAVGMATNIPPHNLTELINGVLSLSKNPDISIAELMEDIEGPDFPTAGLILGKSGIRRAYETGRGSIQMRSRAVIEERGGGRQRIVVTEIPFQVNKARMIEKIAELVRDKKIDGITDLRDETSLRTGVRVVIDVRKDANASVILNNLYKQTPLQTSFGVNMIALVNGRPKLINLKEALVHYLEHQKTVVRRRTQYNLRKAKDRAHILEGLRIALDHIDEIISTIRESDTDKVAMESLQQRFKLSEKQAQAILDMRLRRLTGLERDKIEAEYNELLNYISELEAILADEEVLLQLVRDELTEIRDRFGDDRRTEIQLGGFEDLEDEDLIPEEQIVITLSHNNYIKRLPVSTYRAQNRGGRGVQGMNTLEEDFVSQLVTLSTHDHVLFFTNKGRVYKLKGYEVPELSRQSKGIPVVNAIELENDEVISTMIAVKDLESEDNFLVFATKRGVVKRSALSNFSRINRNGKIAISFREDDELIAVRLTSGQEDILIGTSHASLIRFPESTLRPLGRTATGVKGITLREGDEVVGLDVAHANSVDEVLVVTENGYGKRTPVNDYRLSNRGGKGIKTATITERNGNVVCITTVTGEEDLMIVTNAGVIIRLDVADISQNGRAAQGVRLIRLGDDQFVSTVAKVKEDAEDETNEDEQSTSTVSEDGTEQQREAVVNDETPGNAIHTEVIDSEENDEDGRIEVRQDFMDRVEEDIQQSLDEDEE
T1 sequence (P0A0K8 whole entry): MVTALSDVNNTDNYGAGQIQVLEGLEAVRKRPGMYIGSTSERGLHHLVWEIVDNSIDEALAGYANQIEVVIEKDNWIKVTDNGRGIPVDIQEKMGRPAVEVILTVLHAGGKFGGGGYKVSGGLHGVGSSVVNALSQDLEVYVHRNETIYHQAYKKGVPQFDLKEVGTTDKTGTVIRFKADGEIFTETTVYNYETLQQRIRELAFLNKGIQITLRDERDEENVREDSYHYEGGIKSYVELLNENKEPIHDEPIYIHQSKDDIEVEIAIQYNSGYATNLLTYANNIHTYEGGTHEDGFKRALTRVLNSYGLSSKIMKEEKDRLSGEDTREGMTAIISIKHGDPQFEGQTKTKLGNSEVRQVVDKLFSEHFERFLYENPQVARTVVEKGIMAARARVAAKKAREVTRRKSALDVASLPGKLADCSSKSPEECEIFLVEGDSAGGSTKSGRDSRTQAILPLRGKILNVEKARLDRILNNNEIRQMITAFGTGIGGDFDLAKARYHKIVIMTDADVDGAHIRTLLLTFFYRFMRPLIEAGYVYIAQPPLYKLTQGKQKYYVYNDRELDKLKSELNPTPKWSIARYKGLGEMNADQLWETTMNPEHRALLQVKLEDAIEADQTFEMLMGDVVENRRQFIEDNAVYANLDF

SMILES | MIC (B. cereus ATCC 10876; [5]) [µg/mL] | MIC (B. subtilis ATCC 6633; [6]) [µg/mL] | MIC (M. luteus ATCC 10240; [7]) [µg/mL] | MIC (S. aureus ATCC 25923 [1]; [8]) [µg/mL] | MIC (S. aureus ATCC 6538; [9]) [µg/mL] | MIC [2, 10] [µg/mL] | MIC (MRSA-1; [11]) [µg/mL] | MIC (MSSA-1; [12]) [µg/mL] | MIC (MSSA-2; [13]) [µg/mL] | MIC (MSSA-3; [14]) [µg/mL] | MIC (MSSA-4; [15]) [µg/mL] | viability at 24 h, 25 µg/mL (MTT cytotoxicity assay) [%] | IC50 [3] [µg/mL] | other results
CC1(C)S[C@@H]2[C@H](NC(=O)[C@H](N)c3ccc(O)cc3)C(=O)N2[C@H]1C(=O)O [AMX, amoxicillin, reference compound] | > 250 | 0.12 (≈ 0.328 µM) | 0.24 (≈ 0.657 µM) | 0.12 (≈ 0.328 µM) | 0.12 (≈ 0.328 µM) | 7.81 (≈ 21.4 µM) | 31.2 (≈ 85.5 µM) | 1.95 (≈ 5.34 µM) | 0.12 (≈ 0.328 µM) | 0.98 (≈ 2.68 µM) | 31.2 (≈ 85.5 µM) |  |  | 
CNC(C)C1CCC(N)C(OC2C(N)CC(N)C(OC3OCC(C)(O)C(NC)C3O)C2O)O1 (stereo not shown) [GN, gentamicin, reference compound] | 15.6 (≈ 32.7 µM) | 0.24 (≈ 0.503 µM) | 0.98 (≈ 2.05 µM) | 1.95 (≈ 4.08 µM) | 0.98 (≈ 2.05 µM) | 0.12 (≈ 0.251 µM) | 0.98 (≈ 2.05 µM) | 0.98 (≈ 2.05 µM) | 0.49 (≈ 1.03 µM) | 7.81 (≈ 16.4 µM) | 1.95 (≈ 4.08 µM) |  |  | 
C[C@H]1COc2c(N3CCN(C)CC3)c(F)cc3c(=O)c(C(=O)O)cn1c23 [LEV, levofloxacin, reference compound] | 0.12 (≈ 0.332 µM) | 0.12 (≈ 0.332 µM) | 0.98 (≈ 2.71 µM) | 0.24 (≈ 0.664 µM) | 0.24 (≈ 0.664 µM) | 0.12 (≈ 0.332 µM) | 31.2 (≈ 86.5 µM) | 0.12 (≈ 0.332 µM) | 0.24 (≈ 0.664 µM) | 0.12 (≈ 0.332 µM) | 0.12 (≈ 0.332 µM) | 101 | > 25 | inhibition at 100 µM (S. aureus DNA gyrase; 100 µM, read-out: S. aureus Gyrase DNA Inhibition (%) ± SD): 92.4 ± 3.74%
CC(=O)NC[C@H]1CN(c2ccc(N3CCOCC3)c(F)c2)C(=O)O1 [LZD, linezolid, reference compound] | 0.98 (≈ 2.9 µM) | 0.98 (≈ 2.9 µM) | 0.98 (≈ 2.9 µM) | 1.95 (≈ 5.78 µM) | 0.98 (≈ 2.9 µM) | 0.49 (≈ 1.45 µM) | 1.95 (≈ 5.78 µM) | 1.95 (≈ 5.78 µM) | 1.95 (≈ 5.78 µM) | 0.98 (≈ 2.9 µM) | 1.95 (≈ 5.78 µM) |  |  | 
CN[C@H](CC(C)C)C(=O)N[C@H]1C(=O)N[C@@H](CC(N)=O)C(=O)N[C@H]2C(=O)N[C@H]3C(=O)N[C@H](C(=O)N[C@H](C(=O)O)c4cc(O)cc(O)c4-c4cc3ccc4O)[C@H](O)c3ccc(c(Cl)c3)Oc3cc2cc(c3O[C@@H]2O[C@H](CO)[C@@H](O)[C@H](O)[C@H]2O[C@H]2C[C@](C)(N)[C@H](O)[C@H](C)O2)Oc2ccc(cc2Cl)[C@H]1O [VA, vancomycin, reference compound] |  |  |  |  |  |  |  |  |  |  |  |  |  | MIC (B. cereus ATCC 10876): 0.98 µg/mL (≈ 0.676 µM); MIC (B. subtilis ATCC 6633): 0.24 µg/mL (≈ 0.166 µM); MIC (M. luteus ATCC 10240): 0.24 µg/mL (≈ 0.166 µM); MIC (S. aureus ATCC 25923 [1]): 0.98 µg/mL (≈ 0.676 µM); MIC (S. aureus ATCC 6538): 0.49 µg/mL (≈ 0.338 µM); MIC [2]: 0.98 µg/mL (≈ 0.676 µM); MIC (MRSA-1; MRSA): 0.98 µg/mL (≈ 0.676 µM); MIC (MSSA-1; MSSA): 0.49 µg/mL (≈ 0.338 µM); MIC (MSSA-2; MSSA): 0.49 µg/mL (≈ 0.338 µM); MIC (MSSA-3; MSSA): 0.49 µg/mL (≈ 0.338 µM); MIC (MSSA-4; MSSA): 0.49 µg/mL (≈ 0.338 µM)
O=C(NNC(=S)Nc1ccc(Cl)cc1)c1ccccc1F [compound 6, 4-(4-chlorophenyl)-1-(2-fluorobenzoyl)thiosemicarbazide] | 31.2 (≈ 96.5 µM) | 500 (≈ 1540 µM) | 7.82 (≈ 24.2 µM) | 500 (≈ 1540 µM) | 250 (≈ 772 µM) | 250 (≈ 772 µM) | 500 (≈ 1540 µM) | 250 (≈ 772 µM) | > 500 | 250 (≈ 772 µM) | 125 (≈ 386 µM) | 96.8 | > 25 | interaction in combination (S. aureus ATCC 25923 [4]; combination with amoxicillin): additive; interaction in combination (S. aureus ATCC 25923 [4]; combination with gentamicin): synergistic; interaction in combination (S. aureus ATCC 25923 [4]; combination with levofloxacin): additive; interaction in combination (S. aureus ATCC 25923 [4]; combination with linezolid): synergistic; interaction in combination (S. aureus ATCC 25923 [4]; combination with vancomycin): additive; inhibition at 50 µM (S. aureus DNA gyrase; 50 µM, read-out: S. aureus Gyrase DNA Inhibition (%) ± SD): 30.8 ± 3.19%; S. aureus Gyrase DNA Inhibition (%) ± SD (S. aureus DNA gyrase; 100 µM): 49.22 ± 3.18%; inhibition at 100 µM (S. aureus DNA gyrase; read-out: S. aureus Gyrase DNA Inhibition (%) ± SD, 100 µM): ~50%
